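A five-concentration, 48-hour dose response in 96-well plates underlies each endpoint, interpolated linearly between surrounding concentrations. TGI marks complete inhibition of growth.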

One test deals with SN12C renal. As to the kind of experiment: NCI-60 cell line screen, 48 h.
On to `O=C(OCC1OC(n2nc(Cn3nnc(-c4cccnc4)n3)n(-c3cccc4ccccc34)c2=S)C(OC(=O)c2ccccc2)C1OC(=O)c1ccccc1)c1ccccc1` (stereo not given), for which the TGI was > 100 µM.

On to `C[n+]1c(/C=C/c2ccc(O)c3ncccc23)[se]c2ccccc21`, for which the TGI worked out at 16.1 µM.

As to `COc1ccc(NC(C)c2ccncc2)cc1` (stereo not given), the TGI is > 100 µM.

Regarding `O=C1C=CC(=O)C(CNc2ccc(C(=O)OCc3ccccc3)cc2)=C1`, the TGI came to 19.3 µM.

Turning to `CC1=NNC(=O)C1C1CC(c2c[nH]c3ccccc23)=NN=C1Cl` (stereo not given), the TGI is > 100 µM.

For the compound `CC(C)C1=C(O)C2=C(C(=O)C1=O)C1(C)CCCC(C)(C)C1C(O)C2OC=O` (stereo not given), the TGI stood at 23.2 µM.

`CC(C)[Si](OC/C(=C/COC(C)(C)C)[C@H]1CC=C(C(=O)c2ccccc2N2CN(C)C(=O)N(C)C2)C1)(C(C)C)C(C)C`: the TGI stood at 24.9 µM.

`COc1ccc2c(c1)c(=O)c1c(NCCNCCO)ccc3c(=O)n(CCN(C)C)c(=O)n2c31` displayed a TGI of 0.64 µM.

`CC(C)N1CN(c2ccccc2)C2(CCN(CCCC(=O)c3ccc(F)cc3)CC2)C1=O`: the TGI is > 55.4 µM.

Turning to `CC(C)=CCC[C@@H](C)C1=C(O)C(N)=C(C)C(=O)C1=O`, the TGI is > 100 µM.

For the compound `CCOC(=O)C1=CC(C)(C(=O)OCC)Nc2c(nc(N)[nH]c2=O)N1` (stereo not given), the TGI was > 10 µM.

As for `c1ccc(C2CC(=NC3CCCCC3)Nc3ccccc3N2)cc1` (stereo not given), the TGI was > 100 µM.

The subject of the next test is SNB-75 CNS. As to the kind of experiment: NCI-60 cell line screen, 48 h.
In the case of `COC1C(O)C(O[C@H]2CC[C@@]3(C)C(CC[C@@H]4[C@@H]3CC[C@]3(C)[C@@H](C(C)OC5OC(CO)C(O)C(O)C5O)CC[C@]43O)C2)OC(C)C1OC1OC(CO)C(O)C(O)C1O` (stereo not given in full), the TGI is > 100 µM.

For `Clc1nncc2sc(-c3ccccc3)nc12`, the TGI is > 64.1 µM.

`Cc1cc(NS(=O)(=O)c2ccc(NC(NC(=O)C(C(F)(F)F)C(F)(F)F)(C(F)(F)F)C(F)(F)F)cc2)no1`: the TGI is > 100 µM.

`C/C(=N\Nc1nc2ccccc2s1)c1ccc2ccccc2n1`: the TGI stood at 97.2 µM.

`O=S1SC(=S)C2C=CC=CC21` (stereo not given): the TGI was > 100 µM.

Turning to `COc1ccc(Oc2cnn(C(Br)(Br)C(C)=O)c(=O)c2Br)cc1`, the TGI amounted to 29.4 µM.

For the compound `C[C@]12CC[C@@H]3c4ccc(O)cc4CC[C@H]3[C@@H]1C/C(=C\c1ccc(C#N)cc1)C2=O`, the TGI is > 100 µM.

As to `CC1(C)CC(C#Cc2ccccc2)CC(C)(C)N1O`, the TGI came out at 54.1 µM.

On to `Cc1cc(O)c(-c2cc(O)c(C)cc2O)cc1O`, for which the TGI came to 29 µM.

As to `O=C(O)CN(CC(=O)O)C(C(=O)O)c1ccccc1` (stereo not given), the TGI was > 100 µM.

In the case of `Cc1ccc(NC(=O)/C(Cc2nc3ccc([N+](=O)[O-])cc3[nH]c2=O)=N\NC(=O)C[n+]2ccccc2)c(C)c1`, the TGI is > 100 µM.

`CCNc1ncnc2sc(SCc3ccccc3)nc12`: the TGI was > 100 µM.

`O=C(OCC1OC(n2nc(Cn3nnc(-c4cccnc4)n3)n(-c3cccc4ccccc34)c2=S)C(OC(=O)c2ccccc2)C1OC(=O)c1ccccc1)c1ccccc1` (stereo not given): the TGI is > 100 µM.

`C[n+]1c(/C=C/c2ccc(O)c3ncccc23)[se]c2ccccc21` yielded a TGI of 34.8 µM.

For `COc1ccc(NC(C)c2ccncc2)cc1` (stereo not given), the TGI is > 100 µM.

For `O=C1C=CC(=O)C(CNc2ccc(C(=O)OCc3ccccc3)cc2)=C1`, the TGI was 18.4 µM.

Take `CC1=NNC(=O)C1C1CC(c2c[nH]c3ccccc23)=NN=C1Cl` (stereo not given): the TGI was > 100 µM.

The compound `CC(C)C1=C(O)C2=C(C(=O)C1=O)C1(C)CCCC(C)(C)C1C(O)C2OC=O` (stereo not given) had a TGI of 23.7 µM.

`CC(C)[Si](OC/C(=C/COC(C)(C)C)[C@H]1CC=C(C(=O)c2ccccc2N2CN(C)C(=O)N(C)C2)C1)(C(C)C)C(C)C` returned a TGI of 28.7 µM.

As to `COc1ccc2c(c1)c(=O)c1c(NCCNCCO)ccc3c(=O)n(CCN(C)C)c(=O)n2c31`, the TGI was found to be 0.503 µM.

Regarding `CC(C)N1CN(c2ccccc2)C2(CCN(CCCC(=O)c3ccc(F)cc3)CC2)C1=O`, the TGI was > 91.6 µM.

`CC(C)=CCC[C@@H](C)C1=C(O)C(N)=C(C)C(=O)C1=O`: the TGI was > 100 µM.

Turning to `CCOC(=O)C1=CC(C)(C(=O)OCC)Nc2c(nc(N)[nH]c2=O)N1` (stereo not given), the TGI was > 10 µM.

With `c1ccc(C2CC(=NC3CCCCC3)Nc3ccccc3N2)cc1` (stereo not given), the TGI worked out at 78.4 µM.

The test system of the next test is SW-620 colon. As to the kind of experiment: NCI-60 cell line screen, 48 h.
Consider `COC1C(O)C(O[C@H]2CC[C@@]3(C)C(CC[C@@H]4[C@@H]3CC[C@]3(C)[C@@H](C(C)OC5OC(CO)C(O)C(O)C5O)CC[C@]43O)C2)OC(C)C1OC1OC(CO)C(O)C(O)C1O` (stereo not given in full), for which the TGI is > 100 µM.

As for `Clc1nncc2sc(-c3ccccc3)nc12`, the TGI was found to be 61.3 µM.

Turning to `Cc1cc(NS(=O)(=O)c2ccc(NC(NC(=O)C(C(F)(F)F)C(F)(F)F)(C(F)(F)F)C(F)(F)F)cc2)no1`, the TGI was > 100 µM.

As for `C/C(=N\Nc1nc2ccccc2s1)c1ccc2ccccc2n1`, the TGI is > 100 µM.

For the compound `O=S1SC(=S)C2C=CC=CC21` (stereo not given), the TGI was > 100 µM.

As for `COc1ccc(Oc2cnn(C(Br)(Br)C(C)=O)c(=O)c2Br)cc1`, the TGI was determined as 27.8 µM.

In the case of `C[C@]12CC[C@@H]3c4ccc(O)cc4CC[C@H]3[C@@H]1C/C(=C\c1ccc(C#N)cc1)C2=O`, the TGI was > 100 µM.

Consider `CC1(C)CC(C#Cc2ccccc2)CC(C)(C)N1O`, for which the TGI was determined as 50.5 µM.

Turning to `Cc1cc(O)c(-c2cc(O)c(C)cc2O)cc1O`, the TGI was 6 µM.

Regarding `O=C(O)CN(CC(=O)O)C(C(=O)O)c1ccccc1` (stereo not given), the TGI is > 100 µM.

Take `Cc1ccc(NC(=O)/C(Cc2nc3ccc([N+](=O)[O-])cc3[nH]c2=O)=N\NC(=O)C[n+]2ccccc2)c(C)c1`: the TGI was > 100 µM.

For the compound `CCNc1ncnc2sc(SCc3ccccc3)nc12`, the TGI was > 100 µM.

On to `O=C(OCC1OC(n2nc(Cn3nnc(-c4cccnc4)n3)n(-c3cccc4ccccc34)c2=S)C(OC(=O)c2ccccc2)C1OC(=O)c1ccccc1)c1ccccc1` (stereo not given), for which the TGI was > 100 µM.

Take `C[n+]1c(/C=C/c2ccc(O)c3ncccc23)[se]c2ccccc21`: the TGI is > 100 µM.

`COc1ccc(NC(C)c2ccncc2)cc1` (stereo not given): the TGI was > 100 µM.

As for `O=C1C=CC(=O)C(CNc2ccc(C(=O)OCc3ccccc3)cc2)=C1`, the TGI amounted to 19.6 µM.

Take `CC1=NNC(=O)C1C1CC(c2c[nH]c3ccccc23)=NN=C1Cl` (stereo not given): the TGI was > 100 µM.

As for `CC(C)C1=C(O)C2=C(C(=O)C1=O)C1(C)CCCC(C)(C)C1C(O)C2OC=O` (stereo not given), the TGI came out at 13.1 µM.

Compound `CC(C)[Si](OC/C(=C/COC(C)(C)C)[C@H]1CC=C(C(=O)c2ccccc2N2CN(C)C(=O)N(C)C2)C1)(C(C)C)C(C)C` registered a TGI of 6.61 µM.

In the case of `COc1ccc2c(c1)c(=O)c1c(NCCNCCO)ccc3c(=O)n(CCN(C)C)c(=O)n2c31`, the TGI came out at 5.94 µM.

Take `CC(C)N1CN(c2ccccc2)C2(CCN(CCCC(=O)c3ccc(F)cc3)CC2)C1=O`: the TGI was determined as 24.2 µM.

Consider `CC(C)=CCC[C@@H](C)C1=C(O)C(N)=C(C)C(=O)C1=O`, for which the TGI is > 100 µM.

As for `CCOC(=O)C1=CC(C)(C(=O)OCC)Nc2c(nc(N)[nH]c2=O)N1` (stereo not given), the TGI is > 10 µM.

For the compound `c1ccc(C2CC(=NC3CCCCC3)Nc3ccccc3N2)cc1` (stereo not given), the TGI was > 100 µM.

(Values after PubChem BioAssay (NCI).)
